Test results published in ChEMBL document CHEMBL1201862, “PubChem BioAssay data set” (2004).
Values belong to the molecule of their own block, whether it stands above or below them. The source made the active and inactive calls.

Tests used:
Type in all cases: functional
[1] = biological target: Induced myeloid leukemia cell differentiation protein Mcl-1 (Homo sapiens, UniProt Q07820)
[2] = biological target: Beta-galactosidase (Escherichia coli, UniProt Q8VNN2); assay: beta-galactosidase enzyme inhibitors and activators, dose response, artefact control for CCR6 antagonist project, biochemical, E. coli enzyme, set 3 (AID 504712)
[3] = biological target: DNA dC->dU-editing enzyme APOBEC-3G (Homo sapiens, UniProt Q9HC16); assay: Dose Response confirmation of small molecule APOBEC3G DNA Deaminase Inhibitors via a fluorescence-based single-stranded DNA deaminase assay. [Related pubchem assays (depositor defined):AID493012, AID493028]
[4] = system: Vero; assay: Vero cell cytotoxicity, cytotoxicity control for flavivirus capping enzyme inhibitors (AID 588742); details: Chlorocebus sabaeus
[5] = biological target: Beta-arrestin-1 (Homo sapiens, UniProt P49407); assay: inhibitors of arrestin peptide binding to AP2, dose response, biochemical, cherry pick 1, beta2-adaptin appendage, flow cytometry (AID 588783)
[6] = biological target: Genome polyprotein (dengue virus type 2, UniProt P29990); assay: Dengue-2 NS5 methyltransferase inhibitors, primary screen, biochemical, confirmation dose response (AID 588689)
[7] = HeLa cell cytotoxicity, dose response, cytotoxicity control for MgcRacGAP inhibitor project (AID 624300)
[8] = biological target: T1, Rac GTPase-activating protein 1 (Homo sapiens, UniProt Q9H0H5); assay: MgcRacGAP GTPase-activating activity inhibitors, confirmation, biochemical, ADP Hunter fluorescence, primary and confirmatory (AID 624330)
T1 sequence (Q9H0H5 whole entry): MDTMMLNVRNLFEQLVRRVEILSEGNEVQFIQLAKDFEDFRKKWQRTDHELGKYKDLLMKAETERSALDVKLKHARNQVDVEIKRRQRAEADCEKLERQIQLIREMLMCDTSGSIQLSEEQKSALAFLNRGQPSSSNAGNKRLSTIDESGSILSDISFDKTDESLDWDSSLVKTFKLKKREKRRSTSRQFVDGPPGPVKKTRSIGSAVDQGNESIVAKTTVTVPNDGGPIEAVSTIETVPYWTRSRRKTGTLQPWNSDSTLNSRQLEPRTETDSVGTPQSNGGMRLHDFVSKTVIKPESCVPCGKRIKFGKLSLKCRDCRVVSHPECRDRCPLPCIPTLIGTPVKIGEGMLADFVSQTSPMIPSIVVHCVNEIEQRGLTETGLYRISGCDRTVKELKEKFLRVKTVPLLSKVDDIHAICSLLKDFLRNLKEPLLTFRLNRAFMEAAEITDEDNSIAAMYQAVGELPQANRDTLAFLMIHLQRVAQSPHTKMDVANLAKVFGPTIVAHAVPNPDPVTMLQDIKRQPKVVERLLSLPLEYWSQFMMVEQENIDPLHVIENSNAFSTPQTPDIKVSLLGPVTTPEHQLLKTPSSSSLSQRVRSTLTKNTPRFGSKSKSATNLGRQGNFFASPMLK

[9] = THP-1 cell cytotoxicity, dose response, cytotoxicity control for Vif-APOBEC3G degradation inhibitor project, THP-1 cells (AID 1117359); details: Human immunodeficiency virus 1, THP-1
[10] = biological target: T2, Hexokinase-1 (Homo sapiens, UniProt P19367); assay: HK1 enzyme inhibition by HKDC1 hits, SAR follow-up, selectivity assay for HKDC1 inhibitor project, biochemical, set 2, resazurin fluorescence coupled readout (AID 588356)
T2 sequence (P19367 whole entry): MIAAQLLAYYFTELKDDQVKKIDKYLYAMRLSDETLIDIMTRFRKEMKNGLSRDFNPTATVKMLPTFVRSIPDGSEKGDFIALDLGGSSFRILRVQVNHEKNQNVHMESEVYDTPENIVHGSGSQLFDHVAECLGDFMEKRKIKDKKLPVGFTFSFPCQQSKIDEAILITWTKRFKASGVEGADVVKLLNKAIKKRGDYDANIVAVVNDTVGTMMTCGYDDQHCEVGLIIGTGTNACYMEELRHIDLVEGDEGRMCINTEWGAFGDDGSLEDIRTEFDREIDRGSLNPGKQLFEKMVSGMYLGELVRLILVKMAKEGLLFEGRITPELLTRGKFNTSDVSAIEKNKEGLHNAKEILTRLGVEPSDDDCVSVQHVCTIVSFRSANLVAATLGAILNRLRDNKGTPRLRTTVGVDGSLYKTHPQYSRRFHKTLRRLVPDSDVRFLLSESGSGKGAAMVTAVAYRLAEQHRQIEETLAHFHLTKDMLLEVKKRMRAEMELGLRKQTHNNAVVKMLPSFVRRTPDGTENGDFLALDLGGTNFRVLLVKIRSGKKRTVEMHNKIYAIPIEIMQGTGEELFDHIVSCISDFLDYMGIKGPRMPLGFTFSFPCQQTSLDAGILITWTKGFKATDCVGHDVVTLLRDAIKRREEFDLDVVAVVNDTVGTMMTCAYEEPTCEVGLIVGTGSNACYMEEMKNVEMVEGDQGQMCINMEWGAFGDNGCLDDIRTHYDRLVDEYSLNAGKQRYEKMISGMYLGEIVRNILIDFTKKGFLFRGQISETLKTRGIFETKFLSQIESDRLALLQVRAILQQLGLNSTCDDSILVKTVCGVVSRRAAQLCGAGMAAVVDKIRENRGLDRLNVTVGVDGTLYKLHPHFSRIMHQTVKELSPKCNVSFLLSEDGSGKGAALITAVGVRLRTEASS

[11] = biological target: T3, Hexokinase HKDC1 (Homo sapiens, UniProt Q2TB90); assay: HKDC1 hexokinase inhibitors, SAR follow-up, biochemical, set 2 (AID 588355)
T3 sequence (Q2TB90 whole entry): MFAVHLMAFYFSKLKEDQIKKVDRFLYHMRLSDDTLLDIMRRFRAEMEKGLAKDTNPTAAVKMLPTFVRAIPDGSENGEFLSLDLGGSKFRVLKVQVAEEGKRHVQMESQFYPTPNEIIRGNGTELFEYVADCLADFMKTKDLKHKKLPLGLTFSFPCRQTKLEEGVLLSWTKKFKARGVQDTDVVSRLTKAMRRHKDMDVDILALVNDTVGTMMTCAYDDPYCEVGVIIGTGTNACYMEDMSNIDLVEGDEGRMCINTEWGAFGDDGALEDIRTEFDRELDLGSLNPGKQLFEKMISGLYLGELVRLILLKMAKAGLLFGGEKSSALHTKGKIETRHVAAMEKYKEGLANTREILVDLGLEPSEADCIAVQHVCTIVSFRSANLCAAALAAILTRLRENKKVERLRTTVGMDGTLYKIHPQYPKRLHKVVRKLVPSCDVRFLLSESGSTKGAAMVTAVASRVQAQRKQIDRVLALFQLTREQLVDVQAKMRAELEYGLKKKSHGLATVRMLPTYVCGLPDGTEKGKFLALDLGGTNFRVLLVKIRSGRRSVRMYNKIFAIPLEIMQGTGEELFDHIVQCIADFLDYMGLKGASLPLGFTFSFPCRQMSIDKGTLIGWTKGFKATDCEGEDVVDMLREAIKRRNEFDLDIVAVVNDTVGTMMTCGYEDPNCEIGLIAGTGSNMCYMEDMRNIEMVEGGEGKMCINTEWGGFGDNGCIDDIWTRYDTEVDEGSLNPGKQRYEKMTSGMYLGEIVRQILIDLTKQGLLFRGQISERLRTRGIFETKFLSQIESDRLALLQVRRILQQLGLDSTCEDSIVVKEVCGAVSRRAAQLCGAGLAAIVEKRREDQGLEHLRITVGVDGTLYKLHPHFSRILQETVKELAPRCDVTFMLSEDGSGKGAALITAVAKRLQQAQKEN

[12] = biological target: T4, Caspase-3 (Homo sapiens, UniProt P42574); assay: caspase-3 inhibitors as off-family protease, SAR follow-up, selectivity assay for SENP protease inhibitor project, biochemical, luminescence, set 2 (AID 588599)
T4 sequence (P42574 whole entry): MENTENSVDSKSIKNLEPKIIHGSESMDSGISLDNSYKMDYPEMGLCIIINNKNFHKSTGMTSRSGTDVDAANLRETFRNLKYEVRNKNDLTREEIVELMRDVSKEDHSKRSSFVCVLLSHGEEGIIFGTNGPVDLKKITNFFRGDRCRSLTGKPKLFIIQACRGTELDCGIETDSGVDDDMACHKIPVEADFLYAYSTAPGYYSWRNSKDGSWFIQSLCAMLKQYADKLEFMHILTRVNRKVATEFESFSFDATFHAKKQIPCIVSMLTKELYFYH

[13] = biological target: T5, Sentrin-specific protease 8 (Homo sapiens, UniProt Q96LD8); assay: SENP8 protease inhibitors, SAR follow-up, biochemical, luminescence, set 2 (AID 588601)
T5 sequence (Q96LD8 whole entry): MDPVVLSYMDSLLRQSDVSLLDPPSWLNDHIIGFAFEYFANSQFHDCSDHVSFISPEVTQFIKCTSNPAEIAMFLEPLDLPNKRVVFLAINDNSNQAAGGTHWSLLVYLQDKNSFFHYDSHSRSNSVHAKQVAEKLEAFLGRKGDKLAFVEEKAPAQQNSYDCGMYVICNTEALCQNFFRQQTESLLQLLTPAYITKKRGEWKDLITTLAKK

[14] = biological target: T6, Sentrin-specific protease 7 (Homo sapiens, UniProt Q9BQF6); assay: SENP7 protease inhibitors, SAR follow-up, biochemical, luminescence, set 2 (AID 588600)
T6 sequence (Q9BQF6 whole entry): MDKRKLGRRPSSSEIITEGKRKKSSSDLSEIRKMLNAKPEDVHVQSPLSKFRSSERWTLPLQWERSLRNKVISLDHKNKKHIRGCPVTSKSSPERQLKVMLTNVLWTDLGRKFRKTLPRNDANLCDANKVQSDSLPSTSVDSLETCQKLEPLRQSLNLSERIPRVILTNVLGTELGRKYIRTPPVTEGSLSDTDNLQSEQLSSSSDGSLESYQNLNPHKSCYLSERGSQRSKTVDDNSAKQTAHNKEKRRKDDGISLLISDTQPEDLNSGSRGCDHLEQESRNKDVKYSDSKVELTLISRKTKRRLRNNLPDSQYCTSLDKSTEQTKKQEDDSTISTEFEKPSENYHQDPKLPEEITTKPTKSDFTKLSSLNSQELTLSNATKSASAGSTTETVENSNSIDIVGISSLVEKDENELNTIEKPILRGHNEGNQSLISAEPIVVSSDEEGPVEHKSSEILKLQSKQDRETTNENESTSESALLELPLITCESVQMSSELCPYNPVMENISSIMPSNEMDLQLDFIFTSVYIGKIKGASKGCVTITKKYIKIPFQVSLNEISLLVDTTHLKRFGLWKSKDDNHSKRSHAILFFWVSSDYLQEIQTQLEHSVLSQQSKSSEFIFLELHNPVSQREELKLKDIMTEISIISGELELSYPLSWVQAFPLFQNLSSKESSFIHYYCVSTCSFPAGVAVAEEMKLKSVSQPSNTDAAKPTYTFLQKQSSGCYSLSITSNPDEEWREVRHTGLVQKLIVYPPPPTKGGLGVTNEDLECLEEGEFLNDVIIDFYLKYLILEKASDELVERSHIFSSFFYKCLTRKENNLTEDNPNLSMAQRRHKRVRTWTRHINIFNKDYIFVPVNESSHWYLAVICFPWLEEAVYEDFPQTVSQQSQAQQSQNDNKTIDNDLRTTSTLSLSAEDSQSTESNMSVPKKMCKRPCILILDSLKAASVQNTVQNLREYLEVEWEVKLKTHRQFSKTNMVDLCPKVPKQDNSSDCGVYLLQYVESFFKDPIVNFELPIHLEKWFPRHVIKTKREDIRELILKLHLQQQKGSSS

[15] = biological target: T7, Sentrin-specific protease 6 (Homo sapiens, UniProt Q9GZR1); assay: SENP6 protease inhibitors, SAR follow-up, biochemical, luminescence, set 2 (AID 588598)
T7 sequence (Q9GZR1 whole entry): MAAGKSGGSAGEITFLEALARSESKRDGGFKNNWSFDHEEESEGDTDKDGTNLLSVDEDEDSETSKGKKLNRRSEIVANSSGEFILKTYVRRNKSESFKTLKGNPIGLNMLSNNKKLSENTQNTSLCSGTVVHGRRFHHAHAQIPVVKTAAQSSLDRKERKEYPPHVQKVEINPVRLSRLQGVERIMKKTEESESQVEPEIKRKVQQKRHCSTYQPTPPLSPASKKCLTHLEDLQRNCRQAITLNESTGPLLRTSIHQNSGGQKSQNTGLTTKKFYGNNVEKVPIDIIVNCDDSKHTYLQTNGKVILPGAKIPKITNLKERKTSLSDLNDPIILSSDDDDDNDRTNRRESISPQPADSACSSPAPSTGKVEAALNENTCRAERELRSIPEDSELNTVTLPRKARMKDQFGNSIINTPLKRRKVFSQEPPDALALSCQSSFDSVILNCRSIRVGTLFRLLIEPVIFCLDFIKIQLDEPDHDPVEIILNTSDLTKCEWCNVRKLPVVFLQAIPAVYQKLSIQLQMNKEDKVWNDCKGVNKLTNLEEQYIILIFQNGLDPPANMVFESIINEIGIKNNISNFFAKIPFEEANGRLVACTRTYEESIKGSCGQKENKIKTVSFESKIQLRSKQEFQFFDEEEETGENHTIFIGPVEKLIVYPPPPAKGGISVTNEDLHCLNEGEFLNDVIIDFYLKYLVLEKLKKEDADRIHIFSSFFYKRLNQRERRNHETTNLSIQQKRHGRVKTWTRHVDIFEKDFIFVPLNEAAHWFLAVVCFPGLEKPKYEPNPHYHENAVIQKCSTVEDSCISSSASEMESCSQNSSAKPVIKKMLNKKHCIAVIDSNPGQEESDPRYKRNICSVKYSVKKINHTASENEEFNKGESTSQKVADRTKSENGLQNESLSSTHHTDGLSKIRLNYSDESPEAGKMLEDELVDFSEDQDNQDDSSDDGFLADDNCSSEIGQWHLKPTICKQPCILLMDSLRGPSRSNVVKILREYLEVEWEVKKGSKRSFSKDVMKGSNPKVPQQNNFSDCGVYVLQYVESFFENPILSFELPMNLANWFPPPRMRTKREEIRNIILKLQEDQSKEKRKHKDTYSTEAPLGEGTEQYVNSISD

Sequence of Beta-galactosidase (Q8VNN2 whole entry): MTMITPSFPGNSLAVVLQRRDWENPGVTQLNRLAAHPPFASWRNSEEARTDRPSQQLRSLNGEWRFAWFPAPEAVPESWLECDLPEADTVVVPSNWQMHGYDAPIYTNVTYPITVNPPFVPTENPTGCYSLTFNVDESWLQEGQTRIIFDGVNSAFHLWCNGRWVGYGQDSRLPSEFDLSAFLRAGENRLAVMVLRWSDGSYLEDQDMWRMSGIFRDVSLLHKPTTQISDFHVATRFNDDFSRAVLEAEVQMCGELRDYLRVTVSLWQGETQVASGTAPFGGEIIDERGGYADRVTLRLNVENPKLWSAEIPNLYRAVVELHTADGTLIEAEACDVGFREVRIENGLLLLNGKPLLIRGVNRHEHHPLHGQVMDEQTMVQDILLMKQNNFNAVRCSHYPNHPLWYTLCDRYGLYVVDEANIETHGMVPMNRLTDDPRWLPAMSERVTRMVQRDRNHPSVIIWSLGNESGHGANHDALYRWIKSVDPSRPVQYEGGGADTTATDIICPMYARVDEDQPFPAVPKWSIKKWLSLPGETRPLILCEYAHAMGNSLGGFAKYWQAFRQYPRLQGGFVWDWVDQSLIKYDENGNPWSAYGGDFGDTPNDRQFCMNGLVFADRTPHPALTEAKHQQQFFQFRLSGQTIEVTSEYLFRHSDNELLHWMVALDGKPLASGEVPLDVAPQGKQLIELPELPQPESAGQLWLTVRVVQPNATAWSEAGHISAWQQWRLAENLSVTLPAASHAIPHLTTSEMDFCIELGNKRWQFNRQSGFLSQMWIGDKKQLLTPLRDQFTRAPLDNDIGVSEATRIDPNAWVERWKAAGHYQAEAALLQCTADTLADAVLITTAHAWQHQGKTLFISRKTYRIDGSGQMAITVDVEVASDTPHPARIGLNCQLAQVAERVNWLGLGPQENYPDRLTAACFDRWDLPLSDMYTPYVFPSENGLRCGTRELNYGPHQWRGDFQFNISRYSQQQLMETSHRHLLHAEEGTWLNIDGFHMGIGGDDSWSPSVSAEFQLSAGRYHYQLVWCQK
Sequence of DNA dC->dU-editing enzyme APOBEC-3G (Q9HC16 whole entry): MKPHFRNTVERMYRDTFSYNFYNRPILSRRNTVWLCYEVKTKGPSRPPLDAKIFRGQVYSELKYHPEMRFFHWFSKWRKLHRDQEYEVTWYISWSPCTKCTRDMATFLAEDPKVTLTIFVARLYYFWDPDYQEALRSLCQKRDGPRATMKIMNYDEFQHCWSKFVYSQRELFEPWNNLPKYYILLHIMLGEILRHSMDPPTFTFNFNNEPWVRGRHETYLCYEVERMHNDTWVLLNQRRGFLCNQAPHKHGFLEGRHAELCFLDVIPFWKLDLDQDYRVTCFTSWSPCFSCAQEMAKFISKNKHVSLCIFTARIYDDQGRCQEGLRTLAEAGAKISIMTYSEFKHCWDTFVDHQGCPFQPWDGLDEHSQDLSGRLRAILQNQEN
Sequence of Genome polyprotein (P29990 2492-3391 limits assumed): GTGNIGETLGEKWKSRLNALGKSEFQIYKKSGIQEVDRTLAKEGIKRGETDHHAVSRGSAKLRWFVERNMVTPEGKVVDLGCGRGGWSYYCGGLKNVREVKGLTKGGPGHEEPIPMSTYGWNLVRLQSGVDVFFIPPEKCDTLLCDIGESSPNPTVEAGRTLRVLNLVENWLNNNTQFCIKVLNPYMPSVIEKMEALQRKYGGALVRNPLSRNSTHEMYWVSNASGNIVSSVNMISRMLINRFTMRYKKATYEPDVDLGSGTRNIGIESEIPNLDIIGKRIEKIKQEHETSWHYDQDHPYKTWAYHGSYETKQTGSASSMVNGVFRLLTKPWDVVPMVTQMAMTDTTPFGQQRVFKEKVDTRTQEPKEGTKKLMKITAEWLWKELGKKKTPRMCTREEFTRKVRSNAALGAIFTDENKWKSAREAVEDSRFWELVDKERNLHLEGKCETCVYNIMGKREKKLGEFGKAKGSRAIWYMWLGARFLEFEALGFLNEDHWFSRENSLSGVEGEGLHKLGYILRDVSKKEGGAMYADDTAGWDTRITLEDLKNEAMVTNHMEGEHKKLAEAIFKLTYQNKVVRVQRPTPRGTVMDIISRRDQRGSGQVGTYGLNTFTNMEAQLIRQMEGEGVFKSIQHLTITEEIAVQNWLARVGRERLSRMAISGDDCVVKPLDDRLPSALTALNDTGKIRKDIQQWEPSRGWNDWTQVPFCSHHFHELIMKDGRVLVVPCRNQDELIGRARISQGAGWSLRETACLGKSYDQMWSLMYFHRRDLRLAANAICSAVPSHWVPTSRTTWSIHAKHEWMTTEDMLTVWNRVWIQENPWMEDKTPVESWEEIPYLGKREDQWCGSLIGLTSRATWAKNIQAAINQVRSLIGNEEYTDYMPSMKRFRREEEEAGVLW
Sequence of Beta-arrestin-1 (P49407 whole entry): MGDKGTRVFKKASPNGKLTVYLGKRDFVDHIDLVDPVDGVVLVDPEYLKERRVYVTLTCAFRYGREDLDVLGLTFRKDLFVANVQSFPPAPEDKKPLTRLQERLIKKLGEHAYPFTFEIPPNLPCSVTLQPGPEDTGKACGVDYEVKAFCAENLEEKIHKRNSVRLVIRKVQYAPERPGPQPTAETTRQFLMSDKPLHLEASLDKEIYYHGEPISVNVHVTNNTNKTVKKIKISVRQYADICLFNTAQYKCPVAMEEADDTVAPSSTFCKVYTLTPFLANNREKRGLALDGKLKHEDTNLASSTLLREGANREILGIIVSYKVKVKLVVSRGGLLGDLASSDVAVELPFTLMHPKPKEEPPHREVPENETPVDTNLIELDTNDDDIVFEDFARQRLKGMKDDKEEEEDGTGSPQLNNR
Sequence of Induced myeloid leukemia cell differentiation protein Mcl-1 (Q07820 whole entry): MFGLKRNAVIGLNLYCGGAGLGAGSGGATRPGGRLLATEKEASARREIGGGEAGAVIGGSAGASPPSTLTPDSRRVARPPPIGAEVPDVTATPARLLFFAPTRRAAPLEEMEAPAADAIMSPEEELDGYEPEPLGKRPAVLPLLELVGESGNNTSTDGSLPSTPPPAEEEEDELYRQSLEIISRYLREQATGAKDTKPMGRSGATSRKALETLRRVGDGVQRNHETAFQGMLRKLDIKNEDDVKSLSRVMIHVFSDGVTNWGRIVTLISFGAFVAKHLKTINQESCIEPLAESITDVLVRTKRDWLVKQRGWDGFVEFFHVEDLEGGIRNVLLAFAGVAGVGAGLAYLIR

SMILES: CCC(=O)NC1=C(Cl)C(=O)C(NC(=O)CC)=C(Cl)C1=O
- IC50 [1]: 4.29 µM (active)
- IC50 [2]: > 66.6 µM (inactive)
- IC50 [3]: 2.67 µM (active)
- CC50 [4]: 24 µM (active)
- IC50 [5]: 2.79 µM (active)
- IC50 [6]: 5.19 µM (active)
- CC50 [7]: 48 µM (active)
- IC50 [8]: 23.3 µM (active)
- CC50 [9]: 33.9 µM (active)

- IC50 [10]: > 80 µM (inactive)
- IC50 [11]: > 80 µM (inactive)
SMILES: CCCCN1C(=O)C(NC(C)=O)c2cc(Cl)ccc21 (stereo not given)

- IC50 [12]: > 99 µM (inactive)
- IC50 [14]: > 99 µM (inactive)
- IC50 [15]: > 99 µM (inactive)
SMILES: CCCS(=O)(=O)c1c(S(=O)(=O)CCC)c2c(C)cccn2c1C(=O)N/N=C\c1c[nH]c2ccccc12
- IC50 [13]: > 99 µM (inactive)
